Where “and” joins values, the source holds several entries; their conditions need not be identical. Identical values can stand only once. Inconclusive results and toxic doses are left out.
System: BDF1 mice, P388 leukemia ip, median survival T/C
Assay: NCI In Vivo Anticancer Drug Screen. Data for tumor model P388 Leukemia (intraperitoneal) in B6D2F1 (BDF1) mice
Conditions: endpoint: median survival time, higher = longer survival
In short: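 Read-out is survival of treated animals expressed relative to the vehicle group, as a T/C ratio.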

[1] = dose: 50.0 mg/kg/injection, schedule: Q01DX009 (ip), vehicle: Klucel (hydroxypropylcellulose) (HPC)
[2] = dose: 100.0 mg/kg/injection, schedule: Q01DX009 (ip), vehicle: Klucel (hydroxypropylcellulose) (HPC)
[3] = dose: 100.0 mg/kg/injection, schedule: Q04DX003 (ip), vehicle: Klucel (hydroxypropylcellulose) (HPC)
[4] = dose: 200.0 mg/kg/injection, schedule: Q04DX003 (ip), vehicle: Klucel (hydroxypropylcellulose) (HPC)
[5] = dose: 100.0 mg/kg/injection, schedule: Q01DX001 (ip), vehicle: Klucel (hydroxypropylcellulose) (HPC)
[6] = dose: 200.0 mg/kg/injection, schedule: Q01DX001 (ip), vehicle: Klucel (hydroxypropylcellulose) (HPC)
[7] = dose: 400.0 mg/kg/injection, schedule: Q01DX001 (ip), vehicle: Klucel (hydroxypropylcellulose) (HPC)
[8] = dose: 100.0 mg/kg/injection, schedule: Q01DX009 (ip), vehicle: saline with Tween-80
[9] = dose: 200.0 mg/kg/injection, schedule: Q01DX009 (ip), vehicle: saline with Tween-80
[10] = dose: 400.0 mg/kg/injection, schedule: Q01DX009 (ip), vehicle: saline with Tween-80
[11] = dose: 100.0 mg/kg/injection, schedule: Q04DX003 (ip), vehicle: saline with Tween-80
[12] = dose: 200.0 mg/kg/injection, schedule: Q04DX003 (ip), vehicle: saline with Tween-80
[13] = dose: 400.0 mg/kg/injection, schedule: Q04DX003 (ip), vehicle: saline with Tween-80
[14] = dose: 200.0 mg/kg/injection, schedule: Q01DX009 (ip), vehicle: Klucel (hydroxypropylcellulose) (HPC)
[15] = dose: 400.0 mg/kg/injection, schedule: Q01DX009 (ip), vehicle: Klucel (hydroxypropylcellulose) (HPC)
[16] = dose: 400.0 mg/kg/injection, schedule: Q04DX003 (ip), vehicle: Klucel (hydroxypropylcellulose) (HPC)
[17] = dose: 25.0 mg/kg/injection, schedule: Q01DX009 (ip), vehicle: saline
[18] = dose: 50.0 mg/kg/injection, schedule: Q01DX009 (ip), vehicle: saline
[19] = dose: 100.0 mg/kg/injection, schedule: Q01DX009 (ip), vehicle: saline
[20] = dose: 50.0 mg/kg/injection, schedule: Q01DX009 (ip), vehicle: saline with Tween-80
[21] = dose: 100.0 mg/kg/injection, schedule: Q04DX003 (ip), vehicle: saline

Compound: C[C@]12CCC(=O)C=C1CC[C@@H]1[C@@H]2CC[C@@]2(C)[C@H]1CC[C@]2(C)O
- T/C (dose: 100.0 mg/kg/injection, schedule: Q01DX009 (sc), vehicle: steriod suspending solution): 104 % of control
- T/C (dose: 100.0 mg/kg/injection, schedule: Q04DX003 (sc), vehicle: steriod suspending solution): 105 % of control
- T/C (dose: 200.0 mg/kg/injection, schedule: Q01DX009 (sc), vehicle: steriod suspending solution): 95 % of control
- T/C (dose: 200.0 mg/kg/injection, schedule: Q04DX003 (sc), vehicle: steriod suspending solution): 90 % of control
- T/C (dose: 400.0 mg/kg/injection, schedule: Q04DX003 (sc), vehicle: steriod suspending solution): 115 % of control

Compound: NCc1cn(C2OC(CO)C(O)C2O)c2ncnc(N)c12 (configuration not stated)
- T/C (dose: 1.56 mg/kg/injection, schedule: Q01DX009 (ip), vehicle: saline): 91 % of control and 99 % of control
- T/C (dose: 3.12 mg/kg/injection, schedule: Q01DX009 (ip), vehicle: saline): 100 % of control and 123 % of control
- T/C (dose: 3.12 mg/kg/injection, schedule: Q04DX003 (ip), vehicle: saline): 95 % of control
- T/C (dose: 6.25 mg/kg/injection, schedule: Q04DX003 (ip), vehicle: saline): 91 % of control

Compound: O=[N+]([O-])c1cc([N+](=O)[O-])c(NN(c2ccc(Cl)cc2)c2ccc(Cl)cc2)c([N+](=O)[O-])c1
- T/C [1]: 109 % of control
- T/C [2]: 113 % of control
- T/C [3]: 118 % of control
- T/C [4]: 118 % of control

Compound: COC(=O)CSC/C(=N\Nc1ccccc1)c1ccccc1
- T/C [5]: 95 % of control
- T/C [6]: 100 % of control
- T/C [7]: 109 % of control

Compound: COC(=O)C(Br)C(OC)c1ccc(C)cc1 (configuration not stated)
- T/C [8]: 100 % of control
- T/C [9]: 100 % of control
- T/C [10]: 95 % of control

Compound: COc1ccc2[nH]c(=S)[nH]c(=S)c2c1
- T/C [11]: 92 % of control
- T/C [12]: 91 % of control
- T/C [13]: 100 % of control

Compound: O=C(Cn1ccc(O)cc1=O)c1cccs1
- T/C [8]: 97 % of control
- T/C [9]: 97 % of control
- T/C [10]: 97 % of control

Compound: CCCCCCCSCCSCCSCCCCCCC
- T/C [5]: 100 % of control
- T/C [6]: 100 % of control
- T/C [7]: 100 % of control

Compound: CCN1CCN(Cc2ccccc2)C(CCl)C1 (configuration not stated)
- T/C (dose: 12.5 mg/kg/injection, schedule: Q04DX003 (ip), vehicle: Klucel (hydroxypropylcellulose) (HPC)): 100 % of control
- T/C (dose: 25.0 mg/kg/injection, schedule: Q04DX003 (ip), vehicle: Klucel (hydroxypropylcellulose) (HPC)): 100 % of control
- T/C (dose: 50.0 mg/kg/injection, schedule: Q04DX003 (ip), vehicle: Klucel (hydroxypropylcellulose) (HPC)): 100 % of control

Compound: OC(Cc1cnc2ccccc2c1)(c1ccccc1)c1ccccc1
- T/C (dose: 25.0 mg/kg/injection, schedule: Q04DX002 (ip), vehicle: saline with Tween-80): 98 % of control and 103 % of control
- T/C (dose: 50.0 mg/kg/injection, schedule: Q04DX002 (ip), vehicle: saline with Tween-80): 99 % of control and 117 % of control
- T/C (dose: 100.0 mg/kg/injection, schedule: Q04DX002 (ip), vehicle: saline with Tween-80): 98 % of control and 103 % of control
- T/C (dose: 200.0 mg/kg/injection, schedule: Q04DX002 (ip), vehicle: saline with Tween-80): 94 % of control and 99 % of control and 100 % of control
- T/C (dose: 400.0 mg/kg/injection, schedule: Q04DX002 (ip), vehicle: saline with Tween-80): 98 % of control

Compound: Cc1ccc(NC(=S)N2CCC(CCCC3CCN(C(=S)Nc4ccc(C)c(C)c4)CC3)CC2)cc1C
- T/C [2]: 100 % of control
- T/C [3]: 95 % of control
- T/C [14]: 90 % of control
- T/C [4]: 95 % of control
- T/C [15]: 90 % of control
- T/C [16]: 100 % of control

Compound: CC12CCC3c4ccccc4CCC3(CO1)C2 (configuration not stated)
- T/C [2]: 100 % of control
- T/C [3]: 104 % of control
- T/C [14]: 100 % of control
- T/C [4]: 108 % of control
- T/C [15]: 100 % of control
- T/C [16]: 100 % of control

Compound: COc1ccc(C(=O)CC(c2ccc(OC)c(OC)c2)c2c(O)c3ccccc3oc2=O)cc1OC (configuration not stated)
- T/C (dose: 12.5 mg/kg/injection, schedule: Q01DX009 (ip), vehicle: saline): 101 % of control
- T/C [17]: 111 % of control
- T/C [18]: 101 % of control
- T/C [19]: 109 % of control
- T/C (dose: 200.0 mg/kg/injection, schedule: Q01DX009 (ip), vehicle: saline): 93 % of control

Compound: Cn1c2c(c3ccccc3c1=O)C(=O)c1ccccc1-2
- T/C [20]: 101 % of control
- T/C [9]: 90 % of control

Compound: Clc1ccc2c(Cl)ncnc2c1
- T/C [11]: 104 % of control
- T/C [12]: 109 % of control

Compound: C=C(C)CP(=O)(c1ccccc1)c1ccccc1
- T/C [20]: 96 % of control
- T/C [8]: 100 % of control
- T/C [9]: 91 % of control

Compound: O=C1CN(CN2CCCCC2)C(=O)CN1CN1CCCCC1
- T/C (dose: 12.5 mg/kg/injection, schedule: Q01DX009 (ip), vehicle: Klucel (hydroxypropylcellulose) (HPC)): 115 % of control
- T/C (dose: 25.0 mg/kg/injection, schedule: Q01DX009 (ip), vehicle: Klucel (hydroxypropylcellulose) (HPC)): 117 % of control
- T/C [1]: 92 % of control and 100 % of control
- T/C [3]: 120 % of control
- T/C [4]: 108 % of control

Compound: C#CCOCC1CN(c2ccccc2)C(=O)O1 (configuration not stated)
- T/C [3]: 95 % of control
- T/C [4]: 100 % of control
- T/C [16]: 100 % of control

Compound: O=c1[nH]c(=O)n(CCc2cccs2)cc1F
- T/C [20]: 106 % of control
- T/C [8]: 101 % of control
- T/C [11]: 94 % of control
- T/C [9]: 108 % of control
- T/C [12]: 108 % of control
- T/C [10]: 90 % of control
- T/C [13]: 92 % of control

Compound: Cc1ccc(NC(=O)/C=C\C(=O)O)cc1
- T/C [3]: 108 % of control
- T/C [4]: 100 % of control
- T/C [16]: 100 % of control

Compound: CN(CCOc1ccccc1O)CCOc1ccccc1O
- T/C [5]: 120 % of control
- T/C [6]: 110 % of control
- T/C [7]: 105 % of control

Compound: O=S1(=O)C=Cc2ccccc21
- T/C [1]: 92 % of control
- T/C [2]: 100 % of control
- T/C [3]: 100 % of control
- T/C [14]: 107 % of control
- T/C [4]: 95 % of control

Compound: CC(=O)NC(C)C(C)C (configuration not stated)
- T/C [21]: 100 % of control
- T/C (dose: 200.0 mg/kg/injection, schedule: Q04DX003 (ip), vehicle: saline): 95 % of control
- T/C (dose: 400.0 mg/kg/injection, schedule: Q04DX003 (ip), vehicle: saline): 100 % of control

Compound: CN=S(=O)(OCCCCOS(=O)(=NC)c1ccc(C)cc1)c1ccc(C)cc1 (configuration not stated)
- T/C [13]: 152 % of control

Compound: Cc1ccsc1/C=N/NC(N)=S
- T/C (dose: 50.0 mg/kg/injection, schedule: Q04DX003 (ip), vehicle: saline with Tween-80): 117 % of control
- T/C [11]: 117 % of control
- T/C [12]: 115 % of control
- T/C [13]: 92 % of control

Compound: CCN(CC)CCSC(=O)C(O)(c1ccccc1)C1CCCC1 (configuration not stated)
- T/C [17]: 109 % of control
- T/C (dose: 25.0 mg/kg/injection, schedule: Q04DX003 (ip), vehicle: saline): 109 % of control
- T/C [18]: 95 % of control
- T/C (dose: 50.0 mg/kg/injection, schedule: Q04DX003 (ip), vehicle: saline): 104 % of control
- T/C [19]: 113 % of control
- T/C [21]: 109 % of control

Compound: Nc1nc(N)c2cc(S(=O)(=O)c3cccc(C(F)(F)F)c3)ccc2n1
- T/C [20]: 95 % of control
- T/C [8]: 111 % of control
- T/C [9]: 120 % of control

Compound: CC1=C(N2CCN(c3ccc(Cl)cc3)CC2)C(=O)CC(C)(C)C1
- T/C [2]: 110 % of control
- T/C [14]: 105 % of control
- T/C [15]: 100 % of control

Compound: CCOS(=O)(=O)c1ccc([N+](=O)[O-])cc1[N+](=O)[O-]
- T/C (dose: 50.0 mg/kg/injection, schedule: Q01DX001 (ip), vehicle: saline): 95 % of control
- T/C (dose: 100.0 mg/kg/injection, schedule: Q01DX001 (ip), vehicle: saline): 104 % of control
- T/C (dose: 200.0 mg/kg/injection, schedule: Q01DX001 (ip), vehicle: saline): 118 % of control

Compound: CNc1ccccc1O
- T/C [20]: 102 % of control
- T/C [8]: 98 % of control
- T/C [9]: 95 % of control

Compound: CN(C)N=Nc1ccc(-c2ccccc2)cc1
- T/C (dose: 25.0 mg/kg/injection, schedule: Q01DX009 (ip), vehicle: saline with Tween-80): 99 % of control

Compound: CCCCn1c(Cl)c(/C=N\Nc2ccccc2[N+](=O)[O-])c2ccccc21
- T/C [6]: 89 % of control

Compound: O=C1c2c(Cl)c(Cl)c(Cl)c(Cl)c2C(=O)N1c1ccc(-c2ccccc2)cc1
- T/C (dose: 43.7 mg/kg/injection, schedule: Q01DX009 (ip), vehicle: saline with Tween-80): 101 % of control
- T/C (dose: 87.5 mg/kg/injection, schedule: Q01DX009 (ip), vehicle: saline with Tween-80): 101 % of control
- T/C (dose: 175.0 mg/kg/injection, schedule: Q01DX009 (ip), vehicle: saline with Tween-80): 99 % of control
